# Laboratory results published in patent US9957271B2, “Substituted bicyclic aza-heterocycles and analogues as sirtuin modulators” (GlaxoSmithKline, LLC, priority 2012, dated 2018).
# Experiments:
# [1] = molecular target: T1, SIRT1 (Homo sapiens, UniProt Q96EB6); assay: TAMRA based mass spectrometry assay of SIRT1 activity; assay type: biochemical; settings: for Emax: read-out: TAMRA % Fold Act
# T1 sequence (Q96EB6 1-747): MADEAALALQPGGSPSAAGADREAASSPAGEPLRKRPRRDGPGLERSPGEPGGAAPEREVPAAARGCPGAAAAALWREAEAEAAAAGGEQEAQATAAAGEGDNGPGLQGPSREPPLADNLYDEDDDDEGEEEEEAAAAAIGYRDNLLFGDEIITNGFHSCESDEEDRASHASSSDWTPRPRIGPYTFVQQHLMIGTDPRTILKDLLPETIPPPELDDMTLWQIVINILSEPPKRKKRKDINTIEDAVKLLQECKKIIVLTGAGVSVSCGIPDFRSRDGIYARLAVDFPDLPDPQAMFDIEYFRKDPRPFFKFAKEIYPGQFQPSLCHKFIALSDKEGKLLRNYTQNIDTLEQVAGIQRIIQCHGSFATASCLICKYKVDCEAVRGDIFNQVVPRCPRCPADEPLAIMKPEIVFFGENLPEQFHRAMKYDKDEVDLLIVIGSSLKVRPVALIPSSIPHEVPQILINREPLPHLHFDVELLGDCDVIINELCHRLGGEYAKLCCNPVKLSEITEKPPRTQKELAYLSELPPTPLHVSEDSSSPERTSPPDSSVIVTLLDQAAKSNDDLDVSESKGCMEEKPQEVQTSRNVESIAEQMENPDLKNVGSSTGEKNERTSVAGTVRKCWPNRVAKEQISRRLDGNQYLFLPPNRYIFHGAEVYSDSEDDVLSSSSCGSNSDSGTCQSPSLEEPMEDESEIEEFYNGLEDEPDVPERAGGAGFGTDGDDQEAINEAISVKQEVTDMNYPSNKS
# Outline: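 Recombinant N-terminal His-tagged human SIRT1 (10 nM, E. coli) incubated 25 min at 25 °C with 0.5 μM 5TMR-labelled p53-derived acetyl-peptide and 120 μM βNAD+ in Tris-acetate pH 8 buffer with DTT and 0.05% BSA, compound at varying concentrations. Stopped with formic acid; deacetylated peptide or OAADPR measured by mass spectrometry relative to DMSO controls.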
# [2] = molecular target: T1, SIRT1; assay: Trp mass spectrometry assay of SIRT1 activity; assay type: biochemical; settings: for Emax: read-out: Trp % Fold Act
# Outline: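 His-tagged SIRT1 expressed in E. coli BL21(DE3), 10 nM, incubated 25 min at 25° C. with 0.5 μM Ac-RHKK(Ac)W-NH2 peptide and 120 μM βNAD+ in 50 mM HEPES pH 7.5, […], 1 mM DTT, 0.05% BSA; formic acid stop. OAADPR or deacetylated peptide measured by mass spectrometry; EC1.5 and percent maximum activation versus DMSO control.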
# [3] = TAMRA peptide substrate, concentration giving 150% activation of SIRT1
# [4] = TAMRA peptide substrate, percent maximum fold activation
# [5] = Trp peptide substrate, concentration giving 150% activation of SIRT1
# [6] = Trp peptide substrate, percent maximum fold activation
# [7] = TAMRA assay, concentration giving 150% activation of SIRT1
# [8] = TAMRA assay, percent maximum fold activation
# [9] = Trp assay, concentration giving 150% activation of SIRT1
# [10] = Trp assay, percent maximum fold activation
# [11] = concentration of test compound giving 150% activation of SIRT1, TAMRA peptide substrate
# [12] = percent maximum fold activation of SIRT1, TAMRA peptide substrate
# [13] = concentration of test compound giving 150% activation of SIRT1, Trp peptide substrate
# [14] = percent maximum fold activation of SIRT1, Trp peptide substrate
Structure (SMILES),"TAMRA EC1.5 (μM) [1, 7]","Emax [1, 8]","Trp EC1.5 (μM) [2, 9]","Emax [2, 10]",also measured
"O=C(Nc1cccnc1)c1ncn2ccc(-c3ccccc3C(F)(F)F)nc12 [Compound 451, N-(pyridin-3-yl)-2-(2-(trifluoromethyl)phenyl)imidazo[1,5-a]pyrimidine-8-carboxamide]",,,,,"TAMRA EC1.5 [1, 3]: B (EC1.5 1-25 μM); Emax [1, 4]: ≥ 350%; Trp EC1.5 [2, 5]: B (EC1.5 1-25 μM); Emax [2, 6]: ≥ 350%"
Cc1nc2c(C)cc(-c3ccccc3C(F)(F)F)nn2c1C(=O)Nc1cnccn1 [Compound 586],,,,,"TAMRA EC1.5 [1, 3]: A (EC1.5<1 μM); Emax [1, 4]: ≥ 350%; Trp EC1.5 [2, 5]: A (EC1.5<1 μM); Emax [2, 6]: ≥ 350%"
Cc1nn2ccc(-c3ccccc3C(F)(F)F)nc2c1NC(=O)c1ccncn1 [Compound 572],,,,,"TAMRA EC1.5 [1, 3]: C (EC1.5>25 μM); Emax [1, 4]: < 350%; Trp EC1.5 [2, 5]: C (EC1.5>25 μM); Emax [2, 6]: < 350%"
Cc1nc(C(=O)Nc2cnn3ccc(-c4ccccc4C(F)(F)F)nc23)cs1 [Compound 527],,,,,"TAMRA EC1.5 [1, 3]: A (EC1.5<1 μM); Emax [1, 4]: ≥ 350%; Trp EC1.5 [2, 5]: B (EC1.5 1-25 μM); Emax [2, 6]: < 350%"
O=C(Nc1nccc(OCC(F)(F)F)n1)c1cnc2ccc(-c3ccccc3C(F)(F)F)nn12 [Compound 311],A (EC1.5<1 μM),≥ 350%,A (EC1.5<1 μM),≥ 350%,
Cc1nc2ccc(-c3ccccc3OC(F)(F)F)nn2c1C(=O)Nc1ccccn1 [Compound 496],,,,,"TAMRA EC1.5 [1, 3]: A (EC1.5<1 μM); Emax [1, 4]: ≥ 350%; Trp EC1.5 [2, 5]: A (EC1.5<1 μM); Emax [2, 6]: < 350%"
O=C(Nc1cnn2ccc(-c3ccccc3C(F)(F)F)nc12)c1ncc(F)cc1F [Compound 749],A (EC1.5<1 μM),≥ 350%,B (EC1.5 1-25 μM),< 350%,
O=C(Nc1ccnc(N2CCC2)c1)c1cnc2ccc(-c3ccccc3C(F)(F)F)nn12 [Compound 50],,,,,"TAMRA EC1.5 (μM) [1, 11]: A (EC1.5<1 μM); Emax [1, 12]: ≥ 350%; Trp EC1.5 (μM) [2, 13]: A (EC1.5<1 μM); Emax [2, 14]: ≥ 350%"
O=C(Nc1cnc2ccc(-c3ccccc3OC(F)(F)F)nn12)c1cccc(N2CCOCC2)n1 [Compound 321],A (EC1.5<1 μM),≥ 350%,A (EC1.5<1 μM),≥ 350%,
CS(=O)(=O)c1ccccc1-c1ccc2ncc(C(=O)Nc3cccnc3)n2n1 [Compound 189],,,,,"TAMRA EC1.5 (μM) [1, 11]: C (EC1.5>25 μM); Emax [1, 12]: < 350%; Trp EC1.5 (μM) [2, 13]: C (EC1.5>25 μM); Emax [2, 14]: < 350%"
Cc1nccc(NC(=O)c2c(C)nn3ccc(-c4ccccc4C(F)(F)F)nc23)c1C [Compound 639],A (EC1.5<1 μM),≥ 350%,A (EC1.5<1 μM),≥ 350%,
Cc1nc(C(=O)Nc2cnn3ccc(-c4ccccc4OC(F)(F)F)nc23)c(C)s1 [Compound 713],B (EC1.5 1-25 μM),≥ 350%,B (EC1.5 1-25 μM),< 350%,
COc1cc(NC(=O)c2cnc3ccc(-c4ccccc4C(F)(F)F)nn23)ncn1 [Compound 197],A (EC1.5<1 μM),≥ 350%,B (EC1.5 1-25 μM),< 350%,
Cc1cnc(C(=O)Nc2cnc3c(C)cc(-c4ccccc4C(F)(F)F)nn23)s1 [Compound 424],,,,,"TAMRA EC1.5 [1, 3]: A (EC1.5<1 μM); Emax [1, 4]: ≥ 350%; Trp EC1.5 [2, 5]: B (EC1.5 1-25 μM); Emax [2, 6]: < 350%"
Cc1ccc(C(=O)Nc2cnc3ccc(-c4ccccc4C(F)(F)F)nn23)cn1 [Compound 393],B (EC1.5 1-25 μM),< 350%,C (EC1.5>25 μM),< 350%,
O=C(Nc1cnc2ccc(-c3ccccc3C(F)(F)F)nn12)c1nccs1 [Compound 122],,,,,"TAMRA EC1.5 (μM) [1, 11]: A (EC1.5<1 μM); Emax [1, 12]: ≥ 350%; Trp EC1.5 (μM) [2, 13]: B (EC1.5 1-25 μM); Emax [2, 14]: < 350%"
COc1nccc(NC(=O)c2cnc3ccc(-c4ccccc4C(F)(F)F)nn23)n1 [Compound 173],,,,,"TAMRA EC1.5 (μM) [1, 11]: A (EC1.5<1 μM); Emax [1, 12]: ≥ 350%; Trp EC1.5 (μM) [2, 13]: B (EC1.5 1-25 μM); Emax [2, 14]: ≥ 350%"
O=C(Nc1cnc2ccc(-c3ccccc3C(F)(F)F)nn12)c1ncccc1F [Compound 439],,,,,"TAMRA EC1.5 [1, 3]: A (EC1.5<1 μM); Emax [1, 4]: ≥ 350%; Trp EC1.5 [2, 5]: A (EC1.5<1 μM); Emax [2, 6]: < 350%"
COCCOc1cc(NC(=O)c2cnc3ccc(-c4ccccc4C(F)(F)F)nn23)ncn1 [Compound 663],A (EC1.5<1 μM),≥ 350%,B (EC1.5 1-25 μM),< 350%,
Cc1cc(C)nc(NC(=O)c2cnc3c(C)cc(-c4ccccc4C(F)(F)F)nn23)c1 [Compound 516],,,,,"TAMRA EC1.5 [1, 3]: A (EC1.5<1 μM); Emax [1, 4]: ≥ 350%; Trp EC1.5 [2, 5]: B (EC1.5 1-25 μM); Emax [2, 6]: < 350%"
"Cc1nc2c(OC[C@H](O)CO)cc(-c3ccccc3C(F)(F)F)nn2c1C(=O)Nc1cccnn1 [Compound 773, (R)-8-(2,3-dihydroxypropoxy)-2-methyl-N-(pyridazin-3-yl)-6-(2-(trifluoromethyl)phenyl)imidazo[1,2-b]pyridazine-3-carboxamide]",A (EC1.5<1 μM),≥ 350%,A (EC1.5<1 μM),≥ 350%,

# Second part, led by results:
"TAMRA EC1.5 (μM) [1, 7]","Emax [1, 8]","Trp EC1.5 (μM) [2, 9]","Emax [2, 10]",Structure (SMILES),also measured
C (EC1.5>25 μM),< 350%,B (EC1.5 1-25 μM),≥ 350%,Cc1ccnnc1NC(=O)c1cnc2c(C)cc(-c3ccccc3C(F)(F)F)nn12 [Compound 681],
A (EC1.5<1 μM),≥ 350%,A (EC1.5<1 μM),< 350%,Cc1nc2c(C)cc(-c3ccccc3C(F)(F)F)nn2c1C(=O)Nc1ccnc(C(C)(C)C)n1 [Compound 731],
A (EC1.5<1 μM),≥ 350%,A (EC1.5<1 μM),≥ 350%,Cc1cncc(NC(=O)c2cnn3ccc(-c4ccccc4OC(F)(F)F)nc23)c1 [Compound 616],
A (EC1.5<1 μM),≥ 350%,A (EC1.5<1 μM),≥ 350%,COCCOc1nccc(NC(=O)c2cnc3ccc(-c4ccccc4C(F)(F)F)nn23)n1 [Compound 634],
B (EC1.5 1-25 μM),≥ 350%,B (EC1.5 1-25 μM),< 350%,O=C(Nc1ccc(F)cn1)c1cnc2ccc(-c3ccccc3OC[C@H](O)CO)nn12 [Compound 814],
B (EC1.5 1-25 μM),≥ 350%,C (EC1.5>25 μM),< 350%,O=C(Nc1cnn2ccc(-c3ccccc3C(F)(F)F)nc12)c1cscn1 [Compound 802],
B (EC1.5 1-25 μM),≥ 350%,B (EC1.5 1-25 μM),≥ 350%,Cc1cc2ncc(C(=O)Nc3cccnc3)n2nc1-c1ccccc1C(F)(F)F [Compound 210],
A (EC1.5<1 μM),≥ 350%,A (EC1.5<1 μM),≥ 350%,Cc1cc(-c2ccccc2C(F)(F)F)nn2c(C(=O)Nc3ccnc(N4CCC4)c3)cnc12 [Compound 207],
A (EC1.5<1 μM),≥ 350%,A (EC1.5<1 μM),≥ 350%,CC1(COc2ccnc(NC(=O)c3cnc4ccc(-c5ccccc5C(F)(F)F)nn34)n2)COC1 [Compound 340],
B (EC1.5 1-25 μM),< 350%,C (EC1.5>25 μM),< 350%,O=C(Nc1cnc2ccc(-c3ccccc3F)nn12)c1ccccn1 [Compound 279],
B (EC1.5 1-25 μM),< 350%,B (EC1.5 1-25 μM),< 350%,Cc1ccncc1NC(=O)c1cnn2ccc(-c3ccccc3C(F)(F)F)nc12 [Compound 640],
